According to the NIST ThermoML archive (doi:10.1021/je9001575):

Key:
[1] = molar heat capacity at saturation pressure; conditions: Liquid, Vacuum adiabatic calorimetry
[2] = Molar enthalpy of transition or fusion; conditions: Crystal; Adiabatic calorimetry

CC(C)C [2-methylpropane]
[1]
Conditions | molar heat capacity [J/K/mol]
116.8 K | 99.97
119.57 K | 100.39
122.23 K | 100.86
124.96 K | 101.19
127.55 K | 101.83
130.24 K | 102.1
132.77 K | 102.54
135.42 K | 103.17
137.9 K | 103.68
140.51 K | 103.94
142.95 K | 104.41
145.52 K | 104.91
147.92 K | 105.3
150.47 K | 105.75
152.83 K | 106.16
155.34 K | 106.5
157.66 K | 107.02
160.15 K | 107.18
162.44 K | 107.78
164.89 K | 108.27
167.16 K | 108.62
169.58 K | 109.08
171.82 K | 109.17
174.21 K | 110.08
176.43 K | 110.08
178.8 K | 110.97
180.99 K | 111.25
183.33 K | 112.12
185.5 K | 112
187.82 K | 112.78
189.97 K | 112.81
192.26 K | 113.22
194.39 K | 113.72
196.66 K | 114.21
198.77 K | 114.75
201.01 K | 115.05
203.11 K | 115.61
205.34 K | 115.9
207.41 K | 116.35
209.61 K | 116.79
211.67 K | 117.4
213.86 K | 117.52
215.9 K | 118.12
218.07 K | 118.51
220.09 K | 118.79
222.24 K | 119.63
224.25 K | 119.86
226.39 K | 120.61
228.38 K | 121.07
230.5 K | 121.62
232.48 K | 121.93
234.59 K | 122.3
236.55 K | 122.62
238.65 K | 123.75
240.59 K | 123.7
242.68 K | 124.31
244.61 K | 124.72
246.68 K | 125.15
248.6 K | 125.88
250.66 K | 126.37
252.57 K | 126.78
254.62 K | 127.78
256.52 K | 127.81
258.55 K | 128.92
260.45 K | 128.69
262.47 K | 129.62
264.35 K | 129.86
266.37 K | 130.48
268.24 K | 131.47
270.24 K | 131.7
272.11 K | 132.45
274.1 K | 133.44
275.96 K | 133.56
277.94 K | 134.24
279.8 K | 134.7
281.76 K | 135.37
283.62 K | 135.69
285.57 K | 136.15
287.43 K | 137.7
289.37 K | 137.5
291.23 K | 138.84
293.15 K | 139.14
295.01 K | 139.36
296.93 K | 140.12
298.78 K | 140.84
300.68 K | 141.15
302.54 K | 142.6
306.3 K | 143.77
308.17 K | 143.87
310.04 K | 144.87
311.91 K | 146
313.77 K | 146.62
315.63 K | 147.42

Conditions | Molar enthalpy of transition or fusion [kcal/mol]
[2] | 1.074
